Data: patent US20140017701A1, “CHIMERIC PDK1 KINASES” (priority 2011, published 2014)

Legend:
[1] = tested on: PKCζ-dependent NFκB activation in U937 cells; experiment: PKCζ-dependent NFκB signaling in U937 cells (luciferase reporter, TNFα stimulation); format: cell-based; conditions: 3 h pre-incubation, TNFα 50 ng/ml 90 min, read-out: IC50, inhibition of PKCζ-dependent NFκB activation
Protocol: In U937 lymphoma cells, tumor necrosis factor alpha (TNFα) dependent activation of NFκB is dependent on PKCζ activity (Folgueira, L. et al. J Virol 70, 223-31 (1996); Muller, G. et al. Embo J 14, 1961-9 (1995)). U937cells were transiently transfected with a plasmid encoding for luciferase under the control of NFκB response elements (pGL4.32 [luc2P/NF-κB-RE/Hygro], Promega). After serum starvation overnight, the cells were incubated in 96-well plates with the compounds or DMSO (0.25%) for 3 h and stimulated with TNFα (50 ng/ml, PeproTech) for 90 min. Bright-Glo Luciferase Assay reagent (Promega) was added and the luciferase activity measured using the multilabel reader station EnVision (Perkin Elmer).
U937 lymphoma cells were transiently transfected with a plasmid coding for luciferase under the control of the NFκB promoter. Upon stimulation of the cells with TNFα, an increase in luciferase activity is detected. In U937 cells, the NFκB signaling pathway is dependent on PKCζ activity (Muller, G. et al. Embo J 14, 1961-9 (1995)).

[2] = biological target: T1, SGK (Homo sapiens, UniProt O00141, S422D); experiment: Protein kinase activity assay, SGK; format: biochemical; conditions: Table I a; percentage of catalytic activity compared to DMSO; Crosstide substrate
T1 construct: made in house; host or cells: HEK293
T1 sequence (O00141 61-431 S422D limits assumed): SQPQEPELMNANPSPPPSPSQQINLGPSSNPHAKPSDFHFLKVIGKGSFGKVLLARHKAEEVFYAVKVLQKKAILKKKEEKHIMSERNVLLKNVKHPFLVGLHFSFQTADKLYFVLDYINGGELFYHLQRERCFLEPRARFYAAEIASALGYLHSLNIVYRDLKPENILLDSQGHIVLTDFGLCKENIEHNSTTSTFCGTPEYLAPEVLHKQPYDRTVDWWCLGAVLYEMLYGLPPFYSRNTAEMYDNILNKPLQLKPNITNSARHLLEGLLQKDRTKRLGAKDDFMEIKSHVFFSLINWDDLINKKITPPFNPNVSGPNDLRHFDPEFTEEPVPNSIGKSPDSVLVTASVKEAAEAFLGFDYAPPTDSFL
Protocol: (§1) For the expression and purification of protein kinases fused to GST, pEBG-2T derived plasmids were transfected into 8×14.5 cm dishes containing HEK293 cells using the PEI method ([…] and […]/14.5 cm dish). The cells were lysed after 48 h in a buffer containing 50 mM Tris-HCl pH 7.5, 1 mM EGTA, 1 mM EDTA, 1% (w/v) Triton X-100, 1 mM sodium orthovanadate, […], 5 mM sodium pyrophosphate, 0.27 M sucrose, 0.1% β-mercaptoethanol, and 1 tablet of protease inhibitor cocktail per 50 ml of buffer. Lysates were frozen in liquid nitrogen and kept at −80° C. until required. Purification involved incubation of the cleared lysate with glutathione sepharose, followed by 2 washes with 0.5 M NaCl in lysis buffer, 8 washes with a buffer containing 50 mM Tris-HCl, 0.1 mM EGTA and 0.1% β-mercaptoethanol (buffer A), and a last wash with buffer A supplemented with 0.26 M sucrose. […]
(§2) The protein kinase activity assays were performed essentially as previously described (Engel, M. et al. Embo J 25, 5469-80 (2006)). The assays were done in a 96-well format and 4 μl aliquots spotted on P81 phospho-cellulose papers (Whatman) using epMotion 5070 (Eppendorf), washed in 0.01% phosphoric acid, dried, and then exposed and analyzed using PhosphoImager technology (FLA-9000 Starion, Fujifilm). […]

[3] = biological target: T2, PRK2 (Homo sapiens, UniProt Q16513); experiment: Protein kinase activity assay, PRK2; format: biochemical; conditions: Table I a; percentage of catalytic activity compared to DMSO; Crosstide substrate
T2 construct: made in house; host or cells: HEK293
T2 sequence (Q16513 whole entry): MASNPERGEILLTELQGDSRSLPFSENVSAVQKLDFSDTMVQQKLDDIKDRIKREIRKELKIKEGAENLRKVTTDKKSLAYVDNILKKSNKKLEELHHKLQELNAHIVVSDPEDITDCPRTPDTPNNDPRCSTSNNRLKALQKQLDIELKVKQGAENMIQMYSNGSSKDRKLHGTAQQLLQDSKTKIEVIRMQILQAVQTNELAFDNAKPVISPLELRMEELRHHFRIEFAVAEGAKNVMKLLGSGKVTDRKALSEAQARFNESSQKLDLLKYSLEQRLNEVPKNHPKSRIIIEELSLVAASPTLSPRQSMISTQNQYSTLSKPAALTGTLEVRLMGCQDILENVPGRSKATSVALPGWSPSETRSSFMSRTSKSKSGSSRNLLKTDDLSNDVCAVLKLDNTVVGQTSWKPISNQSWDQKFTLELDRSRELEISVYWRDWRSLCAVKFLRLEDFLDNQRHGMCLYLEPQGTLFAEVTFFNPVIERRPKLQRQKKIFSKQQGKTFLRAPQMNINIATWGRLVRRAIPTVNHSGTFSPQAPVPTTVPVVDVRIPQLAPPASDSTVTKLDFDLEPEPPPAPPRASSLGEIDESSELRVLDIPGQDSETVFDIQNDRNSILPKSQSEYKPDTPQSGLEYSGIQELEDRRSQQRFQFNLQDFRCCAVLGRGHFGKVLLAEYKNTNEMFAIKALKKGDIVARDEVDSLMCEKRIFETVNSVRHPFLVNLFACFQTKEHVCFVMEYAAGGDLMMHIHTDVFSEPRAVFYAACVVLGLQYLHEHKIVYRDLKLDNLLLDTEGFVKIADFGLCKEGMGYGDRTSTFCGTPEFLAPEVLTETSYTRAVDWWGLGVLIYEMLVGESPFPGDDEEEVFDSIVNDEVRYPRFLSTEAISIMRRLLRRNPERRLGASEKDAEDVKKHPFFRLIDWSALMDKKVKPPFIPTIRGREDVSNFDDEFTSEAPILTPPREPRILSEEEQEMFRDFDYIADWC
Protocol: as §1, §2

[4] = biological target: T3, PKBα [Ser473Asp] (Homo sapiens, UniProt P31749, S473D); experiment: Protein kinase activity assay, PKBα; format: biochemical; conditions: Table I a; percentage of catalytic activity compared to DMSO; Crosstide substrate
T3 construct: made in house; host or cells: HEK293
T3 sequence (P31749 whole entry S473D): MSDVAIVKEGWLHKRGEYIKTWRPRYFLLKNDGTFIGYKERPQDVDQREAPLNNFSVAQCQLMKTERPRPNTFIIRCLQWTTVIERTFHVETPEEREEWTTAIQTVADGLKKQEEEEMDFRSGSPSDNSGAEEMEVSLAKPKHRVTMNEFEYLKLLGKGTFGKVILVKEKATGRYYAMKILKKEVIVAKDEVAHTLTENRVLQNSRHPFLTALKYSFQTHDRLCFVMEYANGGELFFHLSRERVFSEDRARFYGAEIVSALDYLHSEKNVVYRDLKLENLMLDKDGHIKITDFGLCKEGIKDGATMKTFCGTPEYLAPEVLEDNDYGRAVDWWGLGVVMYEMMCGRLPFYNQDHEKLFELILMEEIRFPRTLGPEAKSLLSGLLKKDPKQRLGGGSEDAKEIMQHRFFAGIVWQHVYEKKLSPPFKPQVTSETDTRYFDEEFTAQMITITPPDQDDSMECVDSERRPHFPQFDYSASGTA
Protocol: as §1, §2

Row | Structure (SMILES) | IC50 [1] | Activity (%) SGK [2] | Activity (%) PRK2 [3] | Activity (%) PKBα [4]
1 | Cl.O=C(O)CC(Cc1nc2cc(-c3ccccc3)ccc2[nH]1)c1ccc(Cl)cc1 (centres unmarked) [PS168] | 50 µM | 93% | 103% | 87%
2 | Cl.O=C(O)CC(Cc1nc2c(Cl)cc(Cl)cc2[nH]1)c1ccc(Cl)cc1 (centres unmarked) [PS171] | 50 µM | 97% | 97% | 94%
